Data on six molecules can be found in PMC11643554, “Synthesis, Cytotoxicity and Antiproliferative Effect of New Pyrrole Hydrazones” (Molecules, 2024).

“And” between values parts separate entries of the source, which are not always exact repeats. Equal entries are not always repeated. Where two headings read alike, the source gives them in different places. A value given as a limit tells only on which side of the number the result lay.

Data set [1] concerns melanoma cells. Details: method as in PMID 25524552, PMID 29364157. The settings on record: standard cytostatics used in chemotherapy, compared with 1C in SH-4 melanoma cells; cited from earlier work.
In data set [2] the test system is human melanoma SH-4. The data set can be described thus: Antiproliferative activity, MTT dye reduction assay, SH-4. The settings on record: for IC50: Homo sapiens, melanoma SH-4, MTT, 72 h, n = 6, read-out: Mean IC50 ± SD, SH-4; for SI (Selective index): SI = IC50 (non-tumor cell line HaCaT)/IC50 (tumor cell line SH-4). Format: cell-based. The protocol:
(§1) The antiproliferative activity of the studied substances was determined by MTT dye reduction assay. The assay is based on the metabolism of MTT by reductases in the mitochondria to formazan, the concentration of which can be determined photometrically. The measured absorbance is an indicator of cell viability and metabolic activity. Cells were seeded in 96-well cell culture plates (1 × 10^3 cells/well). Followed by incubation at 37 °C, 5% CO2 for 24 h. Followed by incubation for 72 h of the cells with the studied substances in twice increasing concentrations. After washing with PBS, 100 µL/well of MTT solution (0.5 mg/mL) was added. After 3 h of incubation, the 96-well plates were washed with PBS, and 100 µL/well of lysing solution (DMSO/Ethanol = 1/1) was added. Optical density was measured at a wavelength of 540 nm. The antiproliferative activity expressed in % of the negative control was calculated according to the following formula:Antiproliferative activity (%) = (1 − (OD540 (sample)/OD540 (negative control))) × 100
(§2) The IC50 values (a concentration that inhibited 50% cell proliferation) were calculated using non-linear regression analysis (GraphPad Prizm8 Software). The statistical analysis included the application of one-way ANOVA followed by Bonferroni’s post hoc test. p < 0.05 was accepted as the lowest level of statistical significance. All results are presented as mean ± SD.

Data set [3] concerns mouse embryonic fibroblasts BALB 3T3 clone A31. The data set can be described thus: BALB 3T3 Neutral Red Uptake safety test (cytotoxicity/phototoxicity). Format: cell-based. The conditions noted are these: PIF = CC50 −Irr/CC50 +Irr; PIF < 2 not phototoxic, 2 < PIF < 5 probable phototoxicity, PIF > 5 phototoxic. On the procedure:
(§3) The Neutral Red Uptake in vitro assay is a colorimetric method for assessing cell viability. This method is based on the ability of living cells to incorporate Neutral Red dye into lysosomes. Mouse embryonic fibroblasts were seeded at 1 × 10^4 cells/100 μL culture medium/well in 96-well cell culture microplates. The cells were incubated for 24 h to allow cell adhesion. The cells were then treated with a solution of the test substances in double-increasing concentrations (from 15 to 4000 μM). The phototoxicity test was performed in parallel on a second 96-well plate, which was irradiated with a solar simulator (LED lamp—Helios-iO (SERIC Ltd., Tokyo, Japan) for 10 min (irradiation dose 0.86 J). After 24 h of incubation, a culture medium containing Neutral Red was added. After 3 h of incubation, the wells were washed with PBS, and a Desorb solution (50% Ethanol, 1% Acetic acid, 49% dH2O) was added. The optical density (OD) was measured by a microplate reader at λ = 540 nm. The percentage of cytotoxicity was calculated according to the following formula:Cytotoxicity (%) = (1 − (OD540 (sample)/OD540 (negative control))) × 100 Phototoxicity is expressed by Photoirritation factor (PIF), PIF = CC50 − Irr/CC50 +Irr* * Irradiation

Test in data set [4]: as above
The class given is cell-based, mouse. The settings on record: mouse, BALB 3T3 clone A31 embryonic fibroblasts, BALB 3T3, NRU, 24 h incubation, n = 6. On the procedure:
as §3

Data set [5] relates to human keratinocytes HaCaT. The data set can be described thus: Antiproliferative activity, MTT dye reduction assay, HaCaT. Format: cell-based. The settings on record: Homo sapiens, non-tumor keratinocytes HaCaT, 72 h, n = 6, read-out: Mean IC50 ± SD, HaCaT. On the procedure:
as §1, §2

Data set [6] concerns SH-4 cells. The data set can be described thus: Cell cycle analysis, PI stain, flow cytometry. The conditions noted are these: SH-4, 48 h; for effect on cell cycle distribution (in words): at IC50 doses; for G2 phase, percentage of cells / S phase, percentage of cells / G0/G1 phase, percentage of cells: 1 6 µM, 1A 260 µM, 1B 260 µM, 1C 40 µM, 1D 8 µM, cisplatin 20 µM; for G2 phase, percentage of cells: control 12.1; for S phase, percentage of cells: control 21.6; for G0/G1 phase, percentage of cells: control 63.6. The class given is cell-based, human. On the procedure:
After incubation, cells were washed twice with ice-cold PBS and fixed with ice-cold 70% ethanol at −20 °C overnight. The cells were treated with 20 µg/mL RNase A at 37 °C for 60 min, then washed with PBS and finally stained with 20 µg/mL PI in the dark for 30 min. The cellular DNA content for the cell cycle distribution analysis was performed with the system software (BD FACS DIVA software (BD Biosciences, Franklin Lakes, NJ, USA)), plotting at least 10,000 events per sample. Three independent experiments were performed, with two replicates per experiment.

In data set [7] the test system is SH-4 cells. The data set can be described thus: Annexin V-FITC/PI flow cytometry assay (apoptosis). The settings on record: SH-4, 48 h; for Early apoptosis (Annexin V+/PI−, Q3) / Late apoptosis (Annexin V+/PI+, Q2) / Live (viable cells, Annexin V−/PI−, Q4) / Necrosis (Annexin V−/PI+, Q1): 1 6 µM, 1A 260 µM, 1B 260 µM, cisplatin 20 µM; for Early apoptosis (Annexin V+/PI−, Q3) / Late apoptosis (Annexin V+/PI+, Q2) / Live (viable cells, Annexin V−/PI−, Q4) / Necrosis (Annexin V−/PI+, Q1) / population fraction of total apoptotic cells: 1C 40 µM, 1D 8 µM. The class given is cell-based, human. On the procedure:
Apoptosis was discriminated with the annexin V-FITC/PI test according to the manufacturer’s protocol (SIGMA-ALDRICH APOAF). […] After completion of each drug incubation, cell media that may contain cells in suspension was centrifuged at 350× g for 5 min. Subsequently, the cell monolayers were washed once with PBS, and cells were detached with trypsin and then collected together with a centrifuged pellet. The cells were washed twice with cold PBS and then resuspended in a Binding Buffer (0.1 M Hepes/NaOH (pH 7.4), 1.4 M NaCl, 25 mM CaCl2) at a concentration of 1 × 10^5 cells/mL. The cells were incubated with 5 µL of FITC Annexin V and 10 µL PI for 20 min at RT (25 °C) in the dark. The analysis was performed with BD FACS DIVA software version 7.0 (BD Biosciences, Franklin Lakes, NJ, USA). Data were analyzed as follows: lower left quadrant, viable cells (Annexin V−/PI−); lower right quadrant, early apoptotic cells (Annexin V+/PI−); upper right quadrant, late apoptotic cells (annexin V+/PI+); upper left quadrant, necrotic cells (annexin V−/PI+). Three independent experiments were performed, with two replicates per experiment.

[8] abbreviates: irradiated with solar simulator 10 min (0.86 J), read-out: Mean CC50 ± SD, +Irr.
[9] abbreviates: without irradiation, read-out: Mean CC50 ± SD, −Irr.

For the molecule `N.N.O=C([O-])C1(C(=O)[O-])CCC1.[Pt+2]` [Carboplatin], the IC50 in data set [1] was 18.2 µM.
As to `CCOC(=O)c1cc(-c2ccc(Cl)cc2)n(C(Cc2ccccc2)C(=O)N/N=C/c2[nH]c(C)c(C(=O)OCC)c2C)c1C` (stereo not drawn) [Compound 1B, Ethyl(E)-5-(4-chlorophenyl)-1-(1-(2-((4-(ethoxycarbonyl)-3,5-dimethyl-1H-pyrrol-2-yl)methylene)hydrazineyl)-1-oxo-3-phenylpropan-2-yl)-2-methyl-1H-pyrrole-3-carboxylate], the melting point lay within 129 to 132 °C. Further, in data set [2], the IC50 came out at 258 ± 16.1 µM and the “SI (Selective index)” value was determined as 2.11. Moreover, the “PIF (Photo Irritation Factor)” value in data set [3] is 0.96. Also, in data set [4] (setting [8]), the CC50 at 24 h is 2270 ± 55.4 µM. Also, in data set [4] (setting [9]), the CC50 at 24 h turned out to be 2180 ± 154 µM. In addition, the IC50 in data set [5] was 544 ± 26.8 µM. In data set [6], the “effect on cell cycle distribution (in words)” value (“effect” for short) is listed as “slight increase in the S phase population”; the “G2 phase, percentage of cells” value was found to be 13.6%; the “S phase, percentage of cells” value worked out at 34%; the “G0/G1 phase, percentage of cells” value came to 50.2%. The “apoptotic potential higher than α-aldehyde derivative 1A” value in data set [7] (260 µM) stood at 14%. In addition, in data set [7], the “Early apoptosis (Annexin V+/PI−, Q3)” value is 48.9%; the “Late apoptosis (Annexin V+/PI+, Q2)” value is listed as 6.1%; the “Live (viable cells, Annexin V−/PI−, Q4)” value was 44.6%; the “Necrosis (Annexin V−/PI+, Q1)” value is listed as 0.46%.
`CCOC(=O)c1cc(-c2ccc(Cl)cc2)n(C(Cc2ccccc2)C(=O)N/N=C/c2c(C)[nH]c(C(=O)OCC)c2C)c1C` (stereo not drawn) [Compound 1C, Ethyl(E)-4-((2-(2-(5-(4-chlorophenyl)-3-(ethoxycarbonyl)-2-methyl-1H-pyrrol-1-yl)-3-phenylpropanoyl)hydrazineylidene)methyl)-3,5-dimethyl-1H-pyrrole-2-carboxylate]: the melting point is greater than 230 °C. In addition, in data set [2], the concentration for half-maximal inhibition (IC50) worked out at 44.6 ± 3.51 µM and the “SI (Selective index)” value came to 3.83. Also, the “PIF (Photo Irritation Factor)” value in data set [3] was 0.95. Also, in data set [4] (setting [8]), the CC50 at 24 h is 1750 ± 31.7 µM. For the same molecule, the CC50 at 24 h in data set [4] (setting [9]) came out at 1670 ± 41.5 µM. Besides, the IC50 in data set [5] was determined as 171 ± 4.09 µM. Besides, in data set [6], the “effect” value is recorded as “induction of S-phase arrest”; the “G2 phase, percentage of cells” value came out at 24.5%; the “S phase, percentage of cells” value is 38.5% and 38%; the “G0/G1 phase, percentage of cells” value was found to be 35%. For the same molecule, in data set [7], the “Early apoptosis (Annexin V+/PI−, Q3)” value is 39%; the “Late apoptosis (Annexin V+/PI+, Q2)” value is on record as 7.13%; the “Live (viable cells, Annexin V−/PI−, Q4)” value amounted to 53.4%; the “Necrosis (Annexin V−/PI+, Q1)” value is on record as 0.43%. In addition, the “population fraction of total apoptotic cells” value in data set [7] was “around 46%”.
The molecule `CCOC(=O)c1cc(-c2ccc(Cl)cc2)n(C(Cc2ccccc2)C(=O)N/N=C/c2c(C)[nH]c(C)c2C(=O)OCC)c1C` (stereo not drawn) [Compound 1D, Ethyl(E)-5-(4-chlorophenyl)-1-(1-(2-((4-(ethoxycarbonyl)-2,5-dimethyl-1H-pyrrol-3-yl)methylene)hydrazineyl)-1-oxo-3-phenylpropan-2-yl)-2-methyl-1H-pyrrole-3-carboxylate] came in with a melting point greater than 230 °C. Moreover, in data set [2], the 50% inhibitory concentration (IC50) was found to be 8.72 ± 0.6 µM and the “SI (Selective index)” value came to 1.26. Besides, in data set [3], the “PIF (Photo Irritation Factor)” value was 1.13. The CC50 at 24 h in data set [4] (setting [8]) is 3370 ± 130 µM. Also, the half-maximal cytotoxic concentration (CC50) at 24 h in data set [4] (setting [9]) came to 3800 ± 185 µM. Further, in data set [5], the IC50 is 11 ± 0.42 µM. Moreover, in data set [6], the “effect” value is reported as “induction of S-phase arrest”; the “G2 phase, percentage of cells” value was 23.2%; the “S phase, percentage of cells” value was 46.4% and 46%; the “G0/G1 phase, percentage of cells” value came out at 28.3%. Further, in data set [7], the “Early apoptosis (Annexin V+/PI−, Q3)” value was found to be 32.5%; the “Late apoptosis (Annexin V+/PI+, Q2)” value turned out to be 6.51%; the “Live (viable cells, Annexin V−/PI−, Q4)” value stood at 60.2%; the “Necrosis (Annexin V−/PI+, Q1)” value is on record as 0.78%. Further, in data set [7], the “population fraction of total apoptotic cells” value is on record as 39%.
For `CN(C)C(=O)c1cc2cnc(Nc3ccc(N4CCNCC4)cn3)nc2n1C1CCCC1` [Ribociclib], the IC50 in data set [1] is 35 µM.
Regarding `Cn1nnc2c(C(N)=O)ncn2c1=O` [Temozolomide], the half-inhibitory concentration (IC50) in data set [1] is 50 µM.
